# Experimental data as given in ChEMBL document CHEMBL1149079, “A novel sesquiterpene quinone from Hainan sponge Dysidea villosa” (Bioorg Med Chem Lett, 2009).
# Calls of active or inactive are those of the source. No cut-off for these calls is given here.
# Key:
# [1] = biological target: T1, Tyrosine-protein phosphatase non-receptor type 1 (Homo sapiens, UniProt P18031); experiment: Inhibition of human PTP1B
# T1 sequence (P18031 whole entry): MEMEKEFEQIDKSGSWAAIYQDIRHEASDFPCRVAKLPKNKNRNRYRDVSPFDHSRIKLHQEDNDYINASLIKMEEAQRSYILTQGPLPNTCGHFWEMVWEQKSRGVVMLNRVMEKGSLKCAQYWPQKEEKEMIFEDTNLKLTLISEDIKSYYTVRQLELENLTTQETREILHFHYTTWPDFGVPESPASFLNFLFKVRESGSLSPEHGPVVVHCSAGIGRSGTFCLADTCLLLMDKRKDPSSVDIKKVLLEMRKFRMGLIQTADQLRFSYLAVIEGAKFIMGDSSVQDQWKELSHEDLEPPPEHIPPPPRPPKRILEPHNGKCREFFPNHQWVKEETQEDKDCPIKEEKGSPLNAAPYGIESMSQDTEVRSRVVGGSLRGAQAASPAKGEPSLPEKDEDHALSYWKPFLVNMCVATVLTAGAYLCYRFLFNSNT
# [2] = tested on: Human immunodeficiency virus 1; experiment: Antiviral activity against HIV1; type: functional, organism-based
# HeLa = experiment: Cytotoxicity against human HeLa cells; type: functional, cell-based
# 3T3-L1 [3] = experiment: Increase in glucose uptake in mouse 3T3L1 cells relative to control; type: functional
# 3T3-L1 [4] = experiment: Activation of insulin signaling pathway in mouse 3T3L1 cells; type: functional, cell-based
# CHO-K1 [5] = experiment: Activation of insulin signaling pathway in CHOK1 cells; type: functional, cell-based; details: Cricetulus griseus
# CHO-K1 [6] = experiment: Induction of membrane translocation of GLUT4 transporter in CHOK1 cells; type: functional, cell-based; details: Cricetulus griseus
# 3T3-L1 [7] = experiment: Induction of membrane translocation of GLUT4 transporter in mouse 3T3L1 cells; type: functional, cell-based
Structure (SMILES),IC50 [1] [µM],Activity [2],IC50 (HeLa) [µM],Activity (3T3-L1 [3]),Activity (3T3-L1 [4]),Activity (CHO-K1 [5]),Activity (CHO-K1 [6]),Activity (3T3-L1 [7])
COC1=CC(=O)C=C(C[C@@]2(C)CC[C@]3(C)C(C)=CCC[C@H]3[C@H]2C)C1=O,39.5,inactive,19.4,,,,,
CC1=CCC[C@H]2[C@](C)(CC3=CC(=O)C=CC3=O)[C@@H](C)CC[C@]12C,,inactive,,,,,,
CC1=CCC[C@H]2[C@](C)(Cc3cc(O)ccc3O)[C@@H](C)CC[C@]12C,,inactive,,,,,,
COC1=CC(=O)C(O)=C(C[C@@]2(C)CC[C@]3(C)C(C)=CCC[C@H]3[C@H]2C)C1=O [BOLINAQUINONE],,inactive,5.45,,,,,
CC1=CCC[C@H]2[C@@H](C)[C@@](C)(CC3=C(O)C(=O)C=C(NCCS(=O)(=O)O)C3=O)CC[C@]12C [DYSIDINE],6.7,inactive,,2.3,Active,Active,Active,Active
